Measured values as given in patent US20240158394A1, “NEK7 INHIBITORS” (Halia Therapeutics, Inc., priority 2022, published 2024).

Molecular target: full-length recombinant human NEK7 (Homo sapiens (Human), UniProt Q8TDX7)
Assay: NEK7 Enzymatic Assay
Assay type: biochemical
Settings: casein substrate, [33P]-ATP, 2 hours at room temperature
Experimental: Casein substrate (from bovine milk, hydrolyzed and partially dephosphorylated mixture of α, β and κ caseins, obtained from Sigma Aldrich, catalogue #C4765, diluted in distilled water to a final concentration of 1 mg/mL) and full-length recombinant human NEK7 (expressed by baculovirus in Sf9 insect cells using a N-terminal GST tag, obtained from SignalChem, catalogue #N09-10G, 0.1 μg/μL) were mixed in assay buffer (20 mM HEPES pH 7.5, 10 mM MgCl2, 1 mM EGTA, 0.02% Brij35, 0.02 mg/mL BSA, 0.1 mM Na3VO4, 2 mM DTT, 1% DMSO). Compounds of interest (serial 3-fold dilution in DMSO from 10 μM to 0.5 nM) or vehicle (1% DMSO) were dispensed into the kinase reaction mixture by Acoustic technology (Echo550; nanoliter range). After incubation at room temperature for 20 minutes, the kinase reaction was initiated by addition of [^33P]-ATP (specific activity 10 μCi/μL) and the mixture was incubated at room temperature for 2 hours. The reaction was then stopped by spotting the reaction mixture on strips of phosphocellulose P81 paper. Following washing, the radioactivity of the P81 paper was measured and kinase activity data were expressed as the percent remaining kinase activity in test samples compared to vehicle reactions. IC50 values and curve fits were obtained using Prism (GraphPad Software).

Sequence of full-length recombinant human NEK7 (Q8TDX7 whole entry): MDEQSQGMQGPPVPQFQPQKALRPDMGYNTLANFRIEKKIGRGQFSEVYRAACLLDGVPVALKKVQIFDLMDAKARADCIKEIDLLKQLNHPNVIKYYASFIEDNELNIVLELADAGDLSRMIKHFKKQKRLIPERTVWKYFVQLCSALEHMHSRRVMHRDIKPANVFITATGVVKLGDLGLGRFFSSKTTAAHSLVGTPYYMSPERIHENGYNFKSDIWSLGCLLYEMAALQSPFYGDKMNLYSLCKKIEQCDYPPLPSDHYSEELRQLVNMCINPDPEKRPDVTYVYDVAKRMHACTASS

IC50 [nM] | SMILES
< 200 | Nc1ncnc2c1c(-c1ccc(NC(=O)Nc3cc(C4(C(F)(F)F)CC4)on3)c3nccn13)cn2C1CCC1 [Example I-84, 1-(5-(4-amino-7-cyclobutyl-7H-pyrrolo[2,3-d]pyrimidin-5-yl)imidazo[1,2-a]pyridin-8-yl)-3-(5-(1-(trifluoromethyl)-cyclopropyl)isoxazol-3-yl)urea]
< 200 | Nc1ncnc2c1c(-c1ccc(NC(=O)Nc3cc(C4(C(F)(F)F)CC4)on3)c3nccn13)cn2CCO [Example I-85, 1-(5-(4-amino-7-(2-hydroxy-ethyl)-7H-pyrrolo[2,3-d]pyr-imidin-5-yl)imidazo[1,2-a]-pyridin-8-yl)-3-(5-(1-(tri-fluoromethyl)cyclopropyl)-isoxazol-3-yl)urea]
< 200 | CC(C)(O)Cn1cc(-c2ccc(NC(=O)Nc3cc(C4(C(F)(F)F)CC4)on3)c3nccn23)c2c(N)ncnc21 [Example I-86, 1-(5-(4-amino-7-(2-hydroxy-2-methylpropyl)-7H-pyrrolo-[2,3-d]pyrimidin-5-yl)-imidazo[1,2-a]pyridin-8-yl)-3-(5-(1-(trifluoromethyl)-cyclopropyl)isoxazol-3-yl)urea]
< 200 | Nc1ncnc2c1c(-c1ccc(NC(=O)Nc3cc(C4(C(F)(F)F)CC4)on3)c3nccn13)cn2C1CC(O)C1 (stereo not shown) [Example I-87, 1-(5-(4-amino-7-(3-hydroxy-cyclobutyl)-7H-pyrrolo[2,3-d]pyrimidin-5-yl)imidazo[1,2-a]pyridin-8-yl)-3-(5-(1-(trifluoromethyl)cyclopropyl)-isoxazol-3-yl)urea]
< 200 | COCCn1cc(-c2ccc(NC(=O)Nc3cc(C4(C(F)(F)F)CC4)on3)c3nccn23)c2c(N)ncnc21 [Example I-89, 1-(5-(4-amino-7-(2-methoxy-ethyl)-7H-pyrrolo[2,3-d]-pyrimidin-5-yl)imidazo[1,2-a]pyridin-8-yl)-3-(5-(1-(trifluoromethyl)cyclopropyl)-isoxazol-3-yl)urea]
< 200 | Nc1ncnc2c1c(-c1ccc(NC(=O)Nc3cc(C4(C(F)(F)F)CC4)on3)c3nccn13)cn2-c1cccnc1 [Example I-91, 1-(5-(4-amino-7-(pyridin-3-yl)-7H-pyrrolo[2,3-d]pyrimidin-5-yl)imidazo[1,2-a]pyridin-8-yl)-3-(5-(1-(trifluoromethyl)-cyclopropyl)isoxazol-3-yl)urea]
< 200 | Nc1ncnc2c1c(-c1ccc(NC(=O)Nc3cc(C4(C(F)(F)F)CC4)on3)c3nccn13)cn2C1CCNCC1 [Example I-94, 1-(5-(4-amino-7-(piperidin-4-yl)-7H-pyrrolo[2,3-d]pyr-imidin-5-yl)imidazo[1,2-a]-pyridin-8-yl)-3-(5-(1-(trifluoro-methyl)cyclopropyl)isoxazol-3-yl)urea]
200 to 500 | CN1CCC(n2cc(-c3ccc(NC(=O)Nc4cc(C5(C(F)(F)F)CC5)on4)c4nccn34)c3c(N)ncnc32)CC1 [Example I-95, 1-(5-(4-amino-7-(1-methyl-piperidin-4-yl)-7H-pyrrolo-[2,3-d]pyrimidin-5-yl)imid-azo[1,2-a]pyridin-8-yl)-3-(5-(1-(trifluoromethyl)cyclo-propyl)isoxazol-3-yl)urea]
200 to 500 | Nc1ncnc2c1c(-c1ccc(NC(=O)Nc3cc(C4CC4)no3)c3nccn13)cn2C1CC1 [Example I-119, 1-(5-(4-amino-7-cyclopropyl-7H-pyrrolo[2,3-d]pyrimidin-5-yl)imidazo[1,2-a]pyridin-8-yl)-3-(3-cyclopropylisoxazol-5-yl)urea]
< 200 | Nc1ncnc2c1c(-c1ccc(NC(=O)Nc3cc(C4CC4)on3)c3nccn13)cn2C1CC1 [Example I-120, 1-(5-(4-amino-7-cyclopropyl-7H-pyrrolo[2,3-d]pyrimidin-5-yl)imidazo[1,2-a]pyridin-8-yl)-3-(5-cyclopropylisoxazol-3-yl)urea]
